# Source: publication PMC10709440, “High-throughput ligand profile characterization in novel cell lines expressing seven heterologous insect olfactory receptors for the detection of volatile plant biomarkers” (Scientific Reports, 2023)
# Key:
# Drosophila OR98a = molecular target: T1, Drosophila OR98a (Drosophila melanogaster, UniProt Q9VAZ3); experiment: cell-based; set-up: GCaMP6 calcium fluorescence in stable HEK293 OR+ORCO lines; peak dF normalised to 50 uM VUAA1 (=1); settings: HEK293; relative to 50 uM VUAA1 response; below 0.05 set to 0; read-out: % activation
# T1 construct: expressed in transfected cells
# T1 sequence (Q9VAZ3 1-397): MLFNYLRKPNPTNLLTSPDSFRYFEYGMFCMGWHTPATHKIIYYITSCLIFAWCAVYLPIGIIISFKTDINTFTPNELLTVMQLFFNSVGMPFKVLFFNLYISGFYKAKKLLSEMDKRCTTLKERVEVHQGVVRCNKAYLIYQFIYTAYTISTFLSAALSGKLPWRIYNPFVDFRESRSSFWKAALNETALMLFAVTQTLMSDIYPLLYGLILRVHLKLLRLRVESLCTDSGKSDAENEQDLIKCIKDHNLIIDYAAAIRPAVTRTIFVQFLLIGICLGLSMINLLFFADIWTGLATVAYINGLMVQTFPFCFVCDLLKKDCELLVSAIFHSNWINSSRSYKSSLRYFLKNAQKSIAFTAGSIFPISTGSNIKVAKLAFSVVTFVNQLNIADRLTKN
# T1 sequence (Q9VNB5 1-486 partner): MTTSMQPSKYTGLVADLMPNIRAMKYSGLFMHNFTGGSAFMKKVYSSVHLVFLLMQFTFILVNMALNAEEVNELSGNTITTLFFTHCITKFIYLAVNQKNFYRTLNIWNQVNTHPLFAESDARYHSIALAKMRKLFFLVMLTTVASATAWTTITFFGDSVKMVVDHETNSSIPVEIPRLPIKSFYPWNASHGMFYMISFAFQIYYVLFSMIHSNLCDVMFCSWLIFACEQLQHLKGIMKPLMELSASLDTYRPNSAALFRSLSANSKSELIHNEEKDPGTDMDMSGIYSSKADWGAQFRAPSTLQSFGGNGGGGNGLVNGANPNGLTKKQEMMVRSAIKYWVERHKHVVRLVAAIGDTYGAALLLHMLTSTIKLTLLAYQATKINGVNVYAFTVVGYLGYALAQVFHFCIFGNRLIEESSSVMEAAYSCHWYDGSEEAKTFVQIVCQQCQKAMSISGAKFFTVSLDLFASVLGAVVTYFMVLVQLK
# Procedure: (§1) Twelve thousand to 18,000 cells were plated into each well of a black wall, transparent bottom 384-well microplate (Greiner) 48 h or 72 h before the measurements and were simultaneously treated with 1 μg/mL doxycycline. Typically, three columns were filled with one OR expressing cell line, each row was treated with the same compound (three technical replicates for each OR), and each responsive VOC-OR combination was measured at least three times on different days. The plate has 24 columns, thus we could record responses in up to eight different cell lines in each plate. On the day of the experiment, the growth medium was replaced with 20 µL assay buffer/well (140 mM NaCl, 5 mM KCl, 2 mM CaCl2, 1 mM MgCl2, 5 mM HEPES-Na, 20 mM glucose, pH 7.3, 340 mOsm). […] Baseline fluorescence (F0) was recorded for 5 s, after which 7 µL VOC buffer (140 mM NaCl, 5 mM KCl, 2 mM CaCl2, 1 mM MgCl2, 5 mM HEPES-Na, 31 mM glucose, 0.1% DMSO, pH 7.3, 340 mOsm) was injected into each well in one row and the fluorescence response was recorded for an additional 30 s, at a rate of one read/sec. VOC solutions (VOC buffer with 4× concentration of the final measured VOC concentration, 9 µL/well was injected) were measured on the same wells in a second round with the same protocol. Each individual concentration of a specific VOC sample was recorded in three wells for the same cell line on the same microplate. The raw data were exported in xls file format, F0 and FMAX values, and the fluorescence intensity changes (∆F) were calculated in Excel (Microsoft) (Supplementary file Data summary.xlsx) using the following equation: ΔF=FMAX-F0/F0 (see also Fig. 1C). On each plate, we recorded the response of each cell line to 50 µM VUAA1. The average of these ∆F values of each cell line were used to calculate the VUAA1-normalized values for the rest of the plate, by dividing VOC response ∆F values by the average VUAA1 response ∆F value of the corresponding OR cell line. Each VOC-OR combination was measured three times as tec The recorded FMAX, F0, ∆F, VUAA1-normalized ∆F values, as well as the OR name, the name of the tested sample, and the final concentration for each well were copied into supplementary file Data summary.xlsx, that was used to summarize all the plates recorded. Here, the averages of the measurements were calculated for each receptor-VOC-concentration combination. […] Each VOC was measured at 1, 10, and 100 µM final concentration on each receptor. VUAA1-normalized response was calculated as described in methods. Values are averages of at least three biological replicates for responsive combinations and two for the non-responsive combinations. The chemical structures of the strong and medium ligands are shown for each cell line. Heat map: white-green colors correspond to the lowest-highest values measured for each cell line.
# Drosophila OR47a = molecular target: T2, Drosophila OR47a (Drosophila melanogaster, UniProt P81921); experiment: cell-based; set-up: GCaMP6 calcium fluorescence in stable HEK293 OR+ORCO lines; peak dF normalised to 50 uM VUAA1 (=1); settings: HEK293; relative to 50 uM VUAA1 response; below 0.05 set to 0; read-out: % activation
# T2 construct: expressed in transfected cells
# T2 sequence (P81921 1-385): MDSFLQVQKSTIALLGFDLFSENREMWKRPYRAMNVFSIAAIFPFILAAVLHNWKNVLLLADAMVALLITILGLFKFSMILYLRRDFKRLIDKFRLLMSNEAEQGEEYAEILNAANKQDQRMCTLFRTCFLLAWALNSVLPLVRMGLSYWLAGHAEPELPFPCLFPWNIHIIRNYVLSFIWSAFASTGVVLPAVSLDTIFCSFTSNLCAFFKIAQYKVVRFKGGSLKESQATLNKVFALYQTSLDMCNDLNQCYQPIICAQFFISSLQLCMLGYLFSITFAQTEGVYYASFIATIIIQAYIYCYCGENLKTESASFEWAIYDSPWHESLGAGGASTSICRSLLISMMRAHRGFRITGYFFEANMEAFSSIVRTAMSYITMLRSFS
# T2 sequence (Q9VNB5 1-486 partner): T1 sequence (Q9VNB5 1-486 partner)
# Procedure: as §1
structure (smiles),measurement,setting,value
CC/C=C/CCO [e3-hexenol],activity at 1 µM,Drosophila OR98a,0%
same,activity at 10 µM,Drosophila OR98a,0%
same,activity at 100 µM,Drosophila OR98a,0%
same,activity at 1 µM,Drosophila OR47a,6.26%
same,activity at 10 µM,Drosophila OR47a,0%
same,activity at 100 µM,Drosophila OR47a,14%
